Where “and” joins values, the source holds several entries; their conditions need not be identical. Equal values may be shown once. ± gives the expanded uncertainty stated by the source.
Conditions: Fluid (supercritical or subcritical phases); for mass density: Buoyancy - hydrostatic balance with magnetic suspension - one sinker; for viscosity: vibrating wire

SMILES: CC [ethane]
- mass density (293.15 K, 64.37 kPa): 0.79811 ± 0.0028 kg/m3
- viscosity (293.15 K, 64.37 kPa): 0.009075 ± 5.5e-05 mPa·s and 0.009074 ± 5.5e-05 mPa·s
- mass density (293.15 K, 80.37 kPa): 0.99778 ± 0.003 kg/m3
- viscosity (293.15 K, 80.37 kPa): 0.009076 ± 5.5e-05 mPa·s
- mass density (293.15 K, 80.42 kPa): 0.99851 ± 0.003 kg/m3
- viscosity (293.15 K, 80.42 kPa): 0.009075 ± 5.5e-05 mPa·s
- mass density (293.15 K, 80.48 kPa): 0.99923 ± 0.003 kg/m3
- viscosity (293.15 K, 80.48 kPa): 0.009073 ± 5.5e-05 mPa·s
- mass density (293.15 K, 160.1 kPa): 2.0005 ± 0.0048 kg/m3
- viscosity (293.15 K, 160.1 kPa): 0.009083 ± 5.5e-05 mPa·s and 0.009082 ± 5.5e-05 mPa·s
- mass density (293.15 K, 160.16 kPa): 2.0012 ± 0.0048 kg/m3
- viscosity (293.15 K, 160.16 kPa): 0.009082 ± 5.5e-05 mPa·s
- mass density (293.15 K, 315.97 kPa): 3.9991 ± 0.0087 kg/m3
- viscosity (293.15 K, 315.97 kPa): 0.009102 ± 5.5e-05 mPa·s
- mass density (293.15 K, 316.05 kPa): 4.0002 ± 0.0087 kg/m3
- viscosity (293.15 K, 316.05 kPa): 0.009098 ± 5.5e-05 mPa·s and 0.009099 ± 5.5e-05 mPa·s
- mass density (293.15 K, 467.91 kPa): 5.9992 ± 0.013 kg/m3
- viscosity (293.15 K, 467.91 kPa): 0.009118 ± 5.5e-05 mPa·s
- mass density (293.15 K, 467.96 kPa): 5.9999 ± 0.013 kg/m3
- viscosity (293.15 K, 467.96 kPa): 0.009119 ± 5.5e-05 mPa·s
- mass density (293.15 K, 468.01 kPa): 6.0006 ± 0.013 kg/m3
- viscosity (293.15 K, 468.01 kPa): 0.009118 ± 5.5e-05 mPa·s
- mass density (293.15 K, 615.93 kPa): 8.0004 ± 0.017 kg/m3
- viscosity (293.15 K, 615.93 kPa): 0.009139 ± 5.5e-05 mPa·s and 0.009137 ± 5.5e-05 mPa·s
- mass density (293.15 K, 616.03 kPa): 8.0018 ± 0.017 kg/m3
- viscosity (293.15 K, 616.03 kPa): 0.009137 ± 5.5e-05 mPa·s
- mass density (293.15 K, 759.69 kPa): 9.9972 ± 0.021 kg/m3
- viscosity (293.15 K, 759.69 kPa): 0.009162 ± 5.5e-05 mPa·s and 0.009165 ± 5.5e-05 mPa·s
- mass density (293.15 K, 889.73 kPa): 11.852 ± 0.025 kg/m3
- viscosity (293.15 K, 889.73 kPa): 0.009183 ± 5.5e-05 mPa·s and 0.009184 ± 5.5e-05 mPa·s
- mass density (293.15 K, 889.87 kPa): 11.854 ± 0.025 kg/m3
- viscosity (293.15 K, 889.87 kPa): 0.009183 ± 5.5e-05 mPa·s
- mass density (293.15 K, 1036.2 kPa): 14.001 ± 0.029 kg/m3
- viscosity (293.15 K, 1036.2 kPa): 0.009212 ± 5.5e-05 mPa·s and 0.009213 ± 5.5e-05 mPa·s
- mass density (293.15 K, 1036.3 kPa): 14.002 ± 0.029 kg/m3
- viscosity (293.15 K, 1036.3 kPa): 0.009213 ± 5.5e-05 mPa·s
- mass density (293.15 K, 1167.2 kPa): 15.979 ± 0.033 kg/m3
- viscosity (293.15 K, 1167.2 kPa): 0.009246 ± 5.6e-05 mPa·s
- mass density (293.15 K, 1167.3 kPa): 15.98 ± 0.033 kg/m3 and 15.981 ± 0.033 kg/m3
- viscosity (293.15 K, 1167.3 kPa): 0.009243 ± 5.6e-05 mPa·s
- mass density (293.15 K, 1293.6 kPa): 17.943 ± 0.038 kg/m3
- viscosity (293.15 K, 1293.6 kPa): 0.009274 ± 5.6e-05 mPa·s
- mass density (293.15 K, 1293.8 kPa): 17.946 ± 0.038 kg/m3
- viscosity (293.15 K, 1293.8 kPa): 0.009275 ± 5.6e-05 mPa·s
- mass density (293.15 K, 1420.8 kPa): 19.979 ± 0.042 kg/m3
- viscosity (293.15 K, 1420.8 kPa): 0.009305 ± 5.6e-05 mPa·s and 0.009308 ± 5.6e-05 mPa·s
- mass density (293.15 K, 1421 kPa): 19.983 ± 0.042 kg/m3
- viscosity (293.15 K, 1421 kPa): 0.00931 ± 5.6e-05 mPa·s
- mass density (293.15 K, 1992.4 kPa): 30.002 ± 0.063 kg/m3
- viscosity (293.15 K, 1992.4 kPa): 0.009506 ± 5.7e-05 mPa·s
- mass density (293.15 K, 1992.5 kPa): 30.004 ± 0.063 kg/m3
- viscosity (293.15 K, 1992.5 kPa): 0.009506 ± 5.7e-05 mPa·s
- mass density (293.15 K, 1992.6 kPa): 30.006 ± 0.063 kg/m3
- viscosity (293.15 K, 1992.6 kPa): 0.009505 ± 5.7e-05 mPa·s
- mass density (293.15 K, 2477.2 kPa): 40.017 ± 0.085 kg/m3
- viscosity (293.15 K, 2477.2 kPa): 0.009749 ± 5.9e-05 mPa·s
- mass density (293.15 K, 2477.4 kPa): 40.022 ± 0.085 kg/m3
- viscosity (293.15 K, 2477.4 kPa): 0.009748 ± 5.9e-05 mPa·s
- mass density (293.15 K, 2477.6 kPa): 40.026 ± 0.085 kg/m3
- viscosity (293.15 K, 2477.6 kPa): 0.009748 ± 5.9e-05 mPa·s
- mass density (293.15 K, 2879.7 kPa): 49.983 ± 0.11 kg/m3
- viscosity (293.15 K, 2879.7 kPa): 0.01003 ± 6e-05 mPa·s
- mass density (293.15 K, 2879.9 kPa): 49.988 ± 0.11 kg/m3
- viscosity (293.15 K, 2879.9 kPa): 0.01003 ± 6e-05 mPa·s
- mass density (293.15 K, 3212.1 kPa): 60.071 ± 0.13 kg/m3
- viscosity (293.15 K, 3212.1 kPa): 0.01036 ± 6.2e-05 mPa·s
- mass density (293.15 K, 3212.2 kPa): 60.073 ± 0.13 kg/m3
- viscosity (293.15 K, 3212.2 kPa): 0.01036 ± 6.2e-05 mPa·s
- mass density (293.15 K, 3212.3 kPa): 60.079 ± 0.13 kg/m3
- viscosity (293.15 K, 3212.3 kPa): 0.01036 ± 6.2e-05 mPa·s
- mass density (293.15 K, 3471.9 kPa): 70.014 ± 0.15 kg/m3
- viscosity (293.15 K, 3471.9 kPa): 0.01073 ± 6.5e-05 mPa·s
- mass density (293.15 K, 3472 kPa): 70.02 ± 0.15 kg/m3
- viscosity (293.15 K, 3472 kPa): 0.01073 ± 6.5e-05 mPa·s
- mass density (293.15 K, 3472.2 kPa): 70.027 ± 0.15 kg/m3
- viscosity (293.15 K, 3472.2 kPa): 0.01073 ± 6.5e-05 mPa·s
- mass density (293.15 K, 3577.6 kPa): 74.947 ± 0.16 kg/m3
- viscosity (293.15 K, 3577.6 kPa): 0.01093 ± 6.6e-05 mPa·s
- mass density (293.15 K, 3577.8 kPa): 74.957 ± 0.16 kg/m3
- viscosity (293.15 K, 3577.8 kPa): 0.01092 ± 6.6e-05 mPa·s
- mass density (307.15 K, 92.55 kPa): 1.0967 ± 0.0032 kg/m3
- viscosity (307.15 K, 92.55 kPa): 0.009492 ± 5.7e-05 mPa·s
- mass density (307.15 K, 92.62 kPa): 1.0975 ± 0.0032 kg/m3
- viscosity (307.15 K, 92.62 kPa): 0.009489 ± 5.7e-05 mPa·s
- mass density (307.15 K, 97.81 kPa): 1.1594 ± 0.0033 kg/m3
- viscosity (307.15 K, 97.81 kPa): 0.009507 ± 5.7e-05 mPa·s and 0.009508 ± 5.7e-05 mPa·s
- mass density (307.15 K, 160.18 kPa): 1.907 ± 0.0046 kg/m3
- viscosity (307.15 K, 160.18 kPa): 0.00951 ± 5.7e-05 mPa·s and 0.009508 ± 5.7e-05 mPa·s
- mass density (307.15 K, 166.71 kPa): 1.9856 ± 0.0047 kg/m3
- viscosity (307.15 K, 166.71 kPa): 0.009531 ± 5.7e-05 mPa·s
- mass density (307.15 K, 166.77 kPa): 1.9863 ± 0.0047 kg/m3
- viscosity (307.15 K, 166.77 kPa): 0.009529 ± 5.7e-05 mPa·s
- mass density (307.15 K, 327.38 kPa): 3.9439 ± 0.0086 kg/m3
- viscosity (307.15 K, 327.38 kPa): 0.009566 ± 5.7e-05 mPa·s
- mass density (307.15 K, 332.45 kPa): 4.0065 ± 0.0087 kg/m3
- viscosity (307.15 K, 332.45 kPa): 0.009542 ± 5.8e-05 mPa·s and 0.009543 ± 5.8e-05 mPa·s
- mass density (307.15 K, 493.91 kPa): 6.0228 ± 0.013 kg/m3
- viscosity (307.15 K, 493.91 kPa): 0.009573 ± 5.8e-05 mPa·s
- mass density (307.15 K, 493.97 kPa): 6.0235 ± 0.013 kg/m3
- viscosity (307.15 K, 493.97 kPa): 0.009572 ± 5.8e-05 mPa·s
- mass density (307.15 K, 649.95 kPa): 8.0188 ± 0.017 kg/m3
- viscosity (307.15 K, 649.95 kPa): 0.009604 ± 5.8e-05 mPa·s
- mass density (307.15 K, 650.01 kPa): 8.0195 ± 0.017 kg/m3
- viscosity (307.15 K, 650.01 kPa): 0.009604 ± 5.8e-05 mPa·s
- mass density (307.15 K, 788.48 kPa): 9.8322 ± 0.021 kg/m3
- viscosity (307.15 K, 788.48 kPa): 0.009663 ± 5.8e-05 mPa·s
- mass density (307.15 K, 788.7 kPa): 9.8351 ± 0.021 kg/m3
- viscosity (307.15 K, 788.7 kPa): 0.009665 ± 5.8e-05 mPa·s
- mass density (307.15 K, 800.35 kPa): 9.9895 ± 0.021 kg/m3
- viscosity (307.15 K, 800.35 kPa): 0.009635 ± 5.8e-05 mPa·s
- mass density (307.15 K, 800.41 kPa): 9.9903 ± 0.021 kg/m3
- viscosity (307.15 K, 800.41 kPa): 0.009639 ± 5.8e-05 mPa·s and 0.009636 ± 5.8e-05 mPa·s
- mass density (307.15 K, 959.13 kPa): 12.123 ± 0.026 kg/m3
- viscosity (307.15 K, 959.13 kPa): 0.009675 ± 5.8e-05 mPa·s
- mass density (307.15 K, 959.2 kPa): 12.124 ± 0.026 kg/m3
- viscosity (307.15 K, 959.2 kPa): 0.009674 ± 5.8e-05 mPa·s
- mass density (307.15 K, 1094.4 kPa): 13.987 ± 0.03 kg/m3
- viscosity (307.15 K, 1094.4 kPa): 0.009709 ± 5.9e-05 mPa·s
- mass density (307.15 K, 1094.5 kPa): 13.988 ± 0.03 kg/m3
- viscosity (307.15 K, 1094.5 kPa): 0.00971 ± 5.9e-05 mPa·s
- mass density (307.15 K, 1233.8 kPa): 15.953 ± 0.034 kg/m3
- viscosity (307.15 K, 1233.8 kPa): 0.009746 ± 5.9e-05 mPa·s
- mass density (307.15 K, 1233.9 kPa): 15.955 ± 0.034 kg/m3
- viscosity (307.15 K, 1233.9 kPa): 0.009746 ± 5.9e-05 mPa·s
- mass density (307.15 K, 1343.4 kPa): 17.536 ± 0.038 kg/m3
- viscosity (307.15 K, 1343.4 kPa): 0.009778 ± 5.9e-05 mPa·s
- mass density (307.15 K, 1469.3 kPa): 19.394 ± 0.041 kg/m3
- viscosity (307.15 K, 1469.3 kPa): 0.009855 ± 5.9e-05 mPa·s
- mass density (307.15 K, 1469.5 kPa): 19.396 ± 0.041 kg/m3
- viscosity (307.15 K, 1469.5 kPa): 0.009856 ± 5.9e-05 mPa·s
- mass density (307.15 K, 1502.4 kPa): 19.889 ± 0.044 kg/m3
- viscosity (307.15 K, 1502.4 kPa): 0.00983 ± 5.9e-05 mPa·s and 0.009828 ± 5.9e-05 mPa·s

Source: the NIST ThermoML archive (doi:10.1021/je101178u)
